Test results: ChEMBL document CHEMBL6153094, “Rationally designed highly amphipathic antimicrobial peptides demonstrating superior bacterial selectivity relative to the corresponding α-helix peptide” (Eur J Med Chem, 2025)
Activity calls are given as the source filed them. The rule behind the calls is not given here. Where a SMILES comes first, the peptide text is derived from it. Bridges are numbered along the chain shown (N, C = ends). [ ]: non-standard residue; d: D form. The star is where a group is joined. X1 = CC[C@H](C)CCCCC(=O)*; dDab = NCC[C@@H](N)C(=O)O; Dab = NCC[C@H](N)C(=O)O

Columns and labels:
Pseudomonas aeruginosa [1] = assay: Antibacterial activity against Pseudomonas aeruginosa ATCC 27853 incubated for 18 hrs in presence of 2.5% serum by broth microdilution method; type: functional, organism-based
Pseudomonas aeruginosa [2] = assay: Antibacterial activity against Pseudomonas aeruginosa ATCC 27853 incubated for 18 hrs in presence of 10% serum by broth microdilution method; type: functional, organism-based
Staphylococcus aureus [3] = assay: Antibacterial activity against Staphylococcus aureus ATCC 25923 incubated for 18 hrs in presence of 10% serum by broth microdilution method; type: functional, organism-based
Pseudomonas aeruginosa [4] = assay: Antibacterial activity against Pseudomonas aeruginosa ATCC 27853 incubated for 18 hrs in presence of 5% serum by broth microdilution method; type: functional, organism-based
Staphylococcus aureus [5] = assay: Antibacterial activity against Staphylococcus aureus ATCC 25923 incubated for 18 hrs in presence of 2.5% serum by broth microdilution method; type: functional, organism-based
Staphylococcus aureus [6] = assay: Antibacterial activity against Staphylococcus aureus ATCC 25923 incubated for 18 hrs in presence of 5% serum by broth microdilution method; type: functional, organism-based
Pseudomonas aeruginosa [7] = assay: Antibiofilm activity in Pseudomonas aeruginosa ATCC 27853 assessed as inhibition of biofilm formation at 1/2 times of MIC incubated for 24 hrs by crystal violet staining based analysis; type: functional, organism-based
Pseudomonas aeruginosa [8] = assay: Bactericidal activity against Pseudomonas aeruginosa ATCC 27853 assessed as bacterial killing at 1 to 4 times of MIC by time-kill kinetics assay; type: functional, organism-based; conditions: time <= 360.0 min
Staphylococcus aureus [9] = assay: Bactericidal activity against Staphylococcus aureus ATCC 25923 assessed as bacterial killing at 1 to 4 times of MIC by time-kill kinetics assay; type: functional, organism-based; conditions: time <= 360.0 min
Pseudomonas aeruginosa [10] = assay: Bactericidal activity against Pseudomonas aeruginosa ATCC 27853 assessed as bacterial killing measured upto 360 mins by time-kill kinetics assay; type: functional, organism-based
Staphylococcus aureus [11] = assay: Bactericidal activity against Staphylococcus aureus ATCC 25923 assessed as bacterial killing measured upto 360 mins by time-kill kinetics assay; type: functional, organism-based
Pseudomonas aeruginosa [12] = assay: Bactericidal activity against Pseudomonas aeruginosa ATCC 27853 assessed as bacterial eradication at 1 times of MIC measured within 30 mins by time-kill kinetics assay; type: functional, organism-based
Pseudomonas aeruginosa [13] = assay: Bactericidal activity against Pseudomonas aeruginosa ATCC 27853 assessed as bacterial eradication at 2 times of MIC measured within 30 mins by time-kill kinetics assay; type: functional, organism-based
Pseudomonas aeruginosa [14] = assay: Bactericidal activity against Pseudomonas aeruginosa ATCC 27853 assessed as bacterial eradication at 4 times of MIC measured within 30 mins by time-kill kinetics assay; type: functional, organism-based
Staphylococcus aureus [15] = assay: Bactericidal activity against Staphylococcus aureus ATCC 25923 assessed as bacterial eradication at 1 times of MIC measured after 360 mins by time-kill kinetics assay; type: functional, organism-based
Staphylococcus aureus [16] = assay: Bactericidal activity against Staphylococcus aureus ATCC 25923 assessed as bacterial eradication at 2 times of MIC measured after 120 mins by time-kill kinetics assay; type: functional, organism-based
Staphylococcus aureus [17] = assay: Bactericidal activity against Staphylococcus aureus ATCC 25923 assessed as bacterial eradication at 4 times of MIC measured after 120 mins by time-kill kinetics assay; type: functional, organism-based
Pseudomonas aeruginosa [18] = assay: Antibacterial activity against Pseudomonas aeruginosa ATCC 27853 assessed as inhibition of bacterial growth compound pretreated with 32 microg/ml of LPS for 1 hrs followed by bacterial addition and measured after 18 hrs by absorbance based assay; type: functional, organism-based
Cell membrane [19] = assay: Disruption of outer membrane integrity in Pseudomonas aeruginosa ATCC 27853 assessed as increase in fluorescence intensity at 1 times of MIC measured for 12 mins by NPN uptake assay; type: subcellular
Cell membrane [20] = assay: Disruption of outer membrane integrity in Pseudomonas aeruginosa ATCC 27853 assessed as increase in fluorescence intensity at 2 times of MIC measured for 12 mins by NPN uptake assay; type: subcellular
Cell membrane [21] = assay: Disruption of outer membrane integrity in Pseudomonas aeruginosa ATCC 27853 assessed as increase in fluorescence intensity at 4 times of MIC measured for 12 mins by NPN uptake assay; type: subcellular
Cell membrane [22] = assay: Induction of inner membrane permeabilization in Escherichia coli ML-35 ATCC 43837 assessed as increase in […] measured for 135 mins by ONPG based analysis; type: subcellular
DNA [23] = assay: Binding affinity to Pseudomonas aeruginosa ATCC 27853 DNA at 1 to 8 times of MIC measured after 30 mins by agarose gel electrophoresis; type: nucleic-acid assay
DNA [24] = assay: Binding affinity to Staphylococcus aureus ATCC 25923 DNA at 1 to 8 times of MIC measured after 30 mins by agarose gel electrophoresis; type: nucleic-acid assay
Pseudomonas aeruginosa [25] = assay: Induction of morphological changes in Pseudomonas aeruginosa ATCC 27853 assessed as cell adhesion at 2 times of MIC incubated for 30 to 120 mins by SEM analysis; type: functional, organism-based; conditions: time 30-120 min
Pseudomonas aeruginosa [26] = assay: Induction of morphological changes in Pseudomonas aeruginosa ATCC 27853 assessed as membrane disruption at 2 times of MIC incubated for 30 to 120 mins by SEM analysis; type: functional, organism-based; conditions: time 30-120 min
Pseudomonas aeruginosa [27] = assay: Induction of morphological changes in Pseudomonas aeruginosa ATCC 27853 assessed as content leakage at 2 times of MIC incubated for 30 to 120 mins by SEM analysis; type: functional, organism-based; conditions: time 30-120 min
Pseudomonas aeruginosa [28] = assay: Induction of morphological changes in Pseudomonas aeruginosa ATCC 27853 assessed as cellular fragmentation at 2 times of MIC incubated for 30 to 120 mins by SEM analysis; type: functional, organism-based; conditions: time 30-120 min
Pseudomonas aeruginosa [29] = assay: Induction of morphological changes in Pseudomonas aeruginosa ATCC 27853 assessed as blister formation at 2 times of MIC incubated for 30 to 120 mins by SEM analysis; type: functional, organism-based; conditions: time 30-120 min
Staphylococcus aureus [30] = assay: Induction of morphological changes in Staphylococcus aureus ATCC 25923 assessed as cell adhesion at 2 times of MIC incubated for 30 to 120 mins by SEM analysis; type: functional, organism-based; conditions: time 30-120 min
Staphylococcus aureus [31] = assay: Induction of morphological changes in Staphylococcus aureus ATCC 25923 assessed as membrane disruption at 2 times of MIC incubated for 30 to 120 mins by SEM analysis; type: functional, organism-based; conditions: time 30-120 min
Staphylococcus aureus [32] = assay: Induction of morphological changes in Staphylococcus aureus ATCC 25923 assessed as content leakage at 2 times of MIC incubated for 30 to 120 mins by SEM analysis; type: functional, organism-based; conditions: time 30-120 min
Staphylococcus aureus [33] = assay: Induction of morphological changes in Staphylococcus aureus ATCC 25923 assessed as cellular fragmentation at 2 times of MIC incubated for 30 to 120 mins by SEM analysis; type: functional, organism-based; conditions: time 30-120 min
Staphylococcus aureus [34] = assay: Induction of morphological changes in Staphylococcus aureus ATCC 25923 assessed as blister formation at 2 times of MIC incubated for 30 to 120 mins by SEM analysis; type: functional, organism-based; conditions: time 30-120 min
Cell membrane [35] = assay: Disruption of membrane integrity in Pseudomonas aeruginosa ATCC 27853 at 2 times of MIC incubated for 30 to 120 mins by SEM analysis; type: subcellular; conditions: time 30-120 min
Cell membrane [36] = assay: Disruption of membrane integrity in Staphylococcus aureus ATCC 25923 at 2 times of MIC incubated for 30 to 120 mins by SEM analysis; type: subcellular; conditions: time 30-120 min
Klebsiella pneumoniae [37] = assay: Antibacterial activity against Klebsiella pneumoniae ATCC 700603 infected in male Balb/c mouse model of pneumonia assessed as decrease in bacterial load in lung at 5 mg/kg, ip administered at 4 and 12 hrs post-infected and measured after 24 hrs by agar plate method; type: functional, organism-based; conditions: time 20.0 hrs
Klebsiella pneumoniae [38] = assay: Antibacterial activity against Klebsiella pneumoniae ATCC 700603 infected in male Balb/c mouse model of pneumonia assessed as decrease in decrease in IL-1beta level in lung at 5 mg/kg, ip administered at 4 and 12 hrs post-infected and measured after 24 hrs by ELISA; type: functional, organism-based; conditions: time 20.0 hrs
Klebsiella pneumoniae [39] = assay: Antibacterial activity against Klebsiella pneumoniae ATCC 700603 infected in male Balb/c mouse model of pneumonia assessed as decrease in decrease in TNF-alpha level in lung at 5 mg/kg, ip administered at 4 and 12 hrs post-infected and measured after 24 hrs by ELISA; type: functional, organism-based; conditions: time 20.0 hrs
Klebsiella pneumoniae [40] = assay: Antibacterial activity against Klebsiella pneumoniae ATCC 700603 infected in male Balb/c mouse model of pneumonia assessed as decrease in decrease in IL-6 level in lung at 5 mg/kg, ip administered at 4 and 12 hrs post-infected and measured after 24 hrs by ELISA; type: functional, organism-based; conditions: time 20.0 hrs
Staphylococcus aureus [41] = assay: Antibacterial activity against methicillin-resistant Staphylococcus aureus ATCC 33591 infected in male Balb/c mouse model of full thickness skin wound assessed as reduction in bacterial load in skin at 1 mg/ml pre-infected with bacteria for 1 hrs followed by compound administration at 1,24,48 and 72 hrs post infection and measured 60 hrs post infection by agar plate method; type: functional, organism-based; conditions: time 59.0 hrs
Staphylococcus aureus [42] = assay: Antibacterial activity against methicillin-resistant Staphylococcus aureus ATCC 33591 infected in male Balb/c mouse model of full thickness skin wound assessed as reduction in bacteria in skin wound at 1 mg/ml pre-infected with bacteria for 1 hrs followed by compound administration at 1,24,48 and 72 hrs post infection and measured after 10 days by photographic analysis; type: functional, organism-based; conditions: time 10.0 day

SMILES: CC(C)CCCCC(=O)N[C@@H](CCN)C(=O)N[C@H](C(=O)N[C@@H](CCN)C(=O)N[C@H]1CCNC(=O)[C@H]([C@@H](C)O)NC(=O)[C@H](CCN)NC(=O)[C@H](CCN)NC(=O)[C@H](CC(C)C)NC(=O)[C@@H](Cc2ccccc2)NC(=O)[C@@H](CCN)NC1=O)[C@@H](C)O.CC[C@H](C)CCCCC(=O)N[C@@H](CCN)C(=O)N[C@H](C(=O)N[C@@H](CCN)C(=O)N[C@H]1CCNC(=O)[C@H]([C@@H](C)O)NC(=O)[C@H](CCN)NC(=O)[C@H](CCN)NC(=O)[C@H](CC(C)C)NC(=O)[C@@H](Cc2ccccc2)NC(=O)[C@@H](CCN)NC1=O)[C@@H](C)O (X1-[Dab]T[Dab][Dab][dDab][dF]L[Dab][Dab]T; lactam 4-C)
- Activity (Pseudomonas aeruginosa [1]): Active
- Activity (Pseudomonas aeruginosa [2]): Active
- Activity (Staphylococcus aureus [3]): Active
- Activity (Pseudomonas aeruginosa [4]): Active
- Activity (Staphylococcus aureus [5]): Active
- Activity (Staphylococcus aureus [6]): Active
- Activity (Pseudomonas aeruginosa [7]): inactive
- Activity (Pseudomonas aeruginosa [8]): Time-dependent-effect
- Activity (Staphylococcus aureus [9]): Time-dependent-effect
- Activity (Pseudomonas aeruginosa [10]): Dose-dependent-effect
- Activity (Staphylococcus aureus [11]): Dose-dependent-effect
- Activity (Pseudomonas aeruginosa [12]): Active
- Activity (Pseudomonas aeruginosa [13]): Active
- Activity (Pseudomonas aeruginosa [14]): Active
- Activity (Staphylococcus aureus [15]): Active
- Activity (Staphylococcus aureus [16]): Active
- Activity (Staphylococcus aureus [17]): Active
- Activity (Pseudomonas aeruginosa [18]): Not active; Compound Binds To Lps To Exert Its Activity
- Activity (Cell membrane [19]): Active
- Activity (Cell membrane [20]): Active
- Activity (Cell membrane [21]): Active; Maximum Permeability Effects Observed
- Activity (Cell membrane [22]): Active; Lower Concentration Of Compound Is Sufficient To Disrupt Inner Membrane
- Activity (DNA [23]): Not active; Weak Binding Affinity Observed
- Activity (DNA [24]): Not active; Weak Binding Affinity Observed
- Activity (Pseudomonas aeruginosa [25]): Active
- Activity (Pseudomonas aeruginosa [26]): Active
- Activity (Pseudomonas aeruginosa [27]): Active
- Activity (Pseudomonas aeruginosa [28]): Active
- Activity (Pseudomonas aeruginosa [29]): Active
- Activity (Staphylococcus aureus [30]): Active
- Activity (Staphylococcus aureus [31]): Active
- Activity (Staphylococcus aureus [32]): Active
- Activity (Staphylococcus aureus [33]): Active
- Activity (Staphylococcus aureus [34]): Active
- Activity (Cell membrane [35]): Active; Pronounced Detrimental Effect Observed
- Activity (Cell membrane [36]): Active
- Activity (Klebsiella pneumoniae [37]): Active
- Activity (Klebsiella pneumoniae [38]): Active
- Activity (Klebsiella pneumoniae [39]): Active
- Activity (Klebsiella pneumoniae [40]): inactive
- Activity (Staphylococcus aureus [41]): Active
- Activity (Staphylococcus aureus [42]): Active; Obvious Facilitation Of Wound Healing Not Observed
